Experimental data reported in ChEMBL document CHEMBL2034898, “Inhibition of homologous recombination in human cells by targeting RAD51 recombinase” (J Med Chem, 2012).
Residue numbers refer to the chain shown, from its start. The source made the active and inactive calls.

How the values were obtained:
[1] = molecular target: T1, DNA repair protein RAD51 homolog 1 (Homo sapiens) (UniProt Q06609); details: 20 uM
T1 sequence (whole entry): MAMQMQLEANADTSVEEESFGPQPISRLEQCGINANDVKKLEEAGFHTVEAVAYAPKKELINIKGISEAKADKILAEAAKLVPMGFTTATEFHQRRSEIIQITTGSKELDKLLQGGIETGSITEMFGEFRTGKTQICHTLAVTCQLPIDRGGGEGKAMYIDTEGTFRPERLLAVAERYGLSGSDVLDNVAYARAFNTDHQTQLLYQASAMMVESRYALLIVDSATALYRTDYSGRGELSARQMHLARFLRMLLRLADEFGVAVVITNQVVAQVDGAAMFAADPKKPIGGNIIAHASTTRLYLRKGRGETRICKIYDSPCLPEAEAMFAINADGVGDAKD
Description: Inhibition of dsDNA binding to human RAD51-ssDNA filament assessed as reduction in coaggregation formation at 20 uM in presence of 50 mM NaCl by dsDNA coaggregation assay

[2] = molecular target: T1, DNA repair protein RAD51 homolog 1 (Homo sapiens); details: HEK293, 5 uM
Description: Inhibition of RAD51 in HEK cells assessed as potentiation of cisplatin-induced cytotoxicity at 5 uM in presence of RAD51 siRNA transfected 40 hrs before compound and cisplatin addition by clonogenic survival assay relative to untreated control

HEK-GFP [3] = assay: Effect on I-SceI expression in HEK-GFP cells by Western blotting; format: functional, cell-based; details: Homo sapiens
HEK-GFP [4] = assay: Effect on GFP expression in HEK-GFP cells transfected with pMX-GFP plasmid by Western blotting; format: functional, cell-based; details: Homo sapiens
[5] = molecular target: T1, DNA repair protein RAD51 homolog 1 (Homo sapiens); details: 25 uM
Description: Inhibition of ssDNA binding to human RAD51 assessed as reduction in RAD51-90-mer ssDNA complex formation at 25 uM by EMSA method

[6] = molecular target: T1, DNA repair protein RAD51 homolog 1 (Homo sapiens); details: 200 uM
Description: Inhibition of human RAD51 oligomerization at 200 uM by gel filtration method

HEK-GFP [7] = assay: Effect on RAD51 expression in HEK-GFP cells by Western blotting; format: functional, cell-based; details: Homo sapiens
MEF [8] = assay: Toxicity in MEF cells assessed as cell viability at 5 uM by incubated for 1 hr by clonogenic survival assay; format: cell-based; details: mouse
MEF [9] = assay: Toxicity in Tp53-/- MEF cells assessed as cell viability at 5 uM by incubated for 1 hr by clonogenic survival assay; format: cell-based; details: mouse
[10] = molecular target: T2, Protein RecA (Escherichia coli K-12) (UniProt P0A7G6); assay: Inhibition of Escherichia coli RecA-mediated DNA branch migration at 10 to 100 microM using [32P]-labeled 5'-joint molecules after 8 hrs by branch migration assay
T2 sequence (whole entry): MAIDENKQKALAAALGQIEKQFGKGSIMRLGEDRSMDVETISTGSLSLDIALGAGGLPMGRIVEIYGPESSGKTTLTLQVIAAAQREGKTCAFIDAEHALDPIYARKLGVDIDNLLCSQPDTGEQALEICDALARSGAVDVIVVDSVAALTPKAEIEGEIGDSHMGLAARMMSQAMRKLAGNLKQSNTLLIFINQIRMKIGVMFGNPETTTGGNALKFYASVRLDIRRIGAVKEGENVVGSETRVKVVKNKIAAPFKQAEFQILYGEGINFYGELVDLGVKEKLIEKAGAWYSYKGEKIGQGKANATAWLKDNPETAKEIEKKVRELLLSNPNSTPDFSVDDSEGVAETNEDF

[11] = molecular target: T1, DNA repair protein RAD51 homolog 1 (Homo sapiens); details: 25 uM; remark: listed apart in the source
Description: Inhibition of human RAD51 ATPase activity at 25 uM by ATP hydrolysis assay

[12] = molecular target: T3, DNA repair protein RAD51 homolog 1 (Mus musculus) (UniProt Q08297); details: MEF, 5 uM
T3 sequence (whole entry): T1 sequence (whole entry) with N10S, F46Y, A76T, A194G
Description: Inhibition of RAD51 in MEF cells assessed as potentiation of MMC-induced cytotoxicity at 5 uM incubated for 1 hr in presence of 0.01 uM PARP1 inhibitor AZD2281 by clonogenic survival assay relative to untreated control

[13] = Lipophilicity, log P of the compound; format: physicochemical; details: octanol/water
[14] = molecular target: T3, DNA repair protein RAD51 homolog 1 (Mus musculus); details: MEF, 5 uM; remark: listed apart in the source
Description: Inhibition of RAD51 in Tp53-/- MEF cells assessed as potentiation of 1 uM MMC-induced cytotoxicity at 5 uM incubated for 1 hr by clonogenic survival assay relative to untreated control

[15] = molecular target: T2, Protein RecA (Escherichia coli K-12); assay: Binding affinity to Escherichia coli RecA at 50 microM by SPR method
[16] = molecular target: T1, DNA repair protein RAD51 homolog 1 (Homo sapiens); details: 20 uM; remark: listed apart in the source
Description: Inhibition of human RAD51-ssDNA filament formation at 20 uM added to free RAD51 prior to filament formation by D-loop formation assay

[17] = molecular target: T1, DNA repair protein RAD51 homolog 1 (Homo sapiens); details: HEK293, 5 uM; remark: listed apart in the source
Description: Inhibition of RAD51 in HEK cells assessed as potentiation of cisplatin-induced cytotoxicity at 5 uM in presence of RAD51 siRNA transfected 40 hrs before compound and cisplatin exposure for 16 hrs by clonogenic survival assay relative to untreated control

[18] = molecular target: T3, DNA repair protein RAD51 homolog 1 (Mus musculus); details: MEF, 5 uM; remark: listed apart in the source
Description: Inhibition of RAD51 in MEF cells assessed as potentiation of MMC-induced cytotoxicity at 5 uM incubated for 1 hr by clonogenic survival assay relative to untreated control

[19] = molecular target: T1, DNA repair protein RAD51 homolog 1 (Homo sapiens); details: HEK293, 5 uM; remark: listed apart in the source
Description: Inhibition of RAD51 in HEK cells assessed as potentiation of cisplatin-induced cytotoxicity at 5 uM in presence of RAD51 siRNA transfected 40 hrs before compound and cisplatin exposure for 10 to 12 hrs by clonogenic survival assay relative to untreated control

[20] = molecular target: T1, DNA repair protein RAD51 homolog 1 (Homo sapiens); details: HEK293, 25 uM
Description: Inhibition of DNA binding to human RAD51 in irradiated HEK cells assessed as reduction in RAD51 foci formation at 25 uM by fluorescence microscopy relative to untreated control

[21] = molecular target: T3, DNA repair protein RAD51 homolog 1 (Mus musculus); details: MEF, 5 uM; remark: listed apart in the source
Description: Inhibition of RAD51 in Tp53-/- MEF cells assessed as potentiation of 32 uM cisplatin-induced cytotoxicity at 5 uM incubated for 1 hr by clonogenic survival assay relative to untreated control

[22] = molecular target: T2, Protein RecA (Escherichia coli K-12); assay: Inhibition of Escherichia coli RecA-mediated DNA strand exchange at 10 to 100 microM using pBSK (+) gapped and linear dsDNA substrates by joint molecule formation assay
[23] = molecular target: T1, DNA repair protein RAD51 homolog 1 (Homo sapiens); assay: Inhibition of human RAD51-mediated DNA strand exchange at 5 to 20 uM using pBSK (+) gapped and linear dsDNA substrates by joint molecule formation assay
[24] = molecular target: T1, DNA repair protein RAD51 homolog 1 (Homo sapiens); assay: Inhibition of human RAD51 in HEK-GFP cells assessed as reduction in double-strand breaks-induced homologous recombination at 5 to 20 uM by chromosomally integrated DR-GFP reporter gene assay; format: cell-based

O=c1c2ccccc2nc(/C=C/c2cccnc2)n1Cc1ccccc1
active: inhibition [1] | inhibition [2] | inhibition [5] | inhibition [11] | inhibition [12] | inhibition [14] | inhibition [16] | inhibition [17] | inhibition [19] | inhibition [20] | inhibition [21]
inactive: Activity (HEK-GFP [3]) | Activity (HEK-GFP [4]) | inhibition [6] | Activity (HEK-GFP [7]) | inhibition [10] | Activity [15] | inhibition [18] | inhibition [22]
Non-toxic: Activity (MEF [8]) | Activity (MEF [9])
3.7: logP [13]

Cc1cc2nc3c(nc2cc1C)[C@@]1(C(=O)O)CCC3(C)C1(C)C
3.7: logP [13]
inactive: inhibition [23] | inhibition [24]
